# From paper PMC6049614 (Chemical Communications (Cambridge, England), 2018)
# Where a SMILES comes first, the peptide text is derived from it. Bridges are numbered along the chain shown (N, C = ends). [ ]: non-standard residue; d: D form. Mpa = O=C(O)CCS
# How the values were obtained:
# Type in all cases: binding
# human V1a receptors = target: T1, human V1a receptors (Homo sapiens, UniProt P37288); test: Scintillation proximity assay, displacement of [3H]AVP from human V1a receptor
# T1 construct: expressed in transfected cells
# T1 sequence (P37288 whole entry): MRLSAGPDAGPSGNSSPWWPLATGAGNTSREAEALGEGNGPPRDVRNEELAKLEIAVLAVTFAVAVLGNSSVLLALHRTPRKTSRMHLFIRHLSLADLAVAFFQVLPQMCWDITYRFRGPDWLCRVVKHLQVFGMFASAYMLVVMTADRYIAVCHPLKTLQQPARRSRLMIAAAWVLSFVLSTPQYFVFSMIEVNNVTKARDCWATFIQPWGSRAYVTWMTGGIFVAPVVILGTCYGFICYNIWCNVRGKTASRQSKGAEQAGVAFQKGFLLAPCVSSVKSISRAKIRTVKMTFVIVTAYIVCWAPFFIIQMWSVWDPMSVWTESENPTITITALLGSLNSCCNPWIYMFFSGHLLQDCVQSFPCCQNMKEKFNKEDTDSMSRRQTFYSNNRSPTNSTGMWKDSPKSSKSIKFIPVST
# From the text: (§1) OT analogues were screened in scintillation proximity assays that displace [^3H]OT or [^3H]AVP from the corresponding receptors. […]
# (§2) All RCYs reported are decay corrected to the time of 18F delivery. The protocols for performing
# (§3) receptor radioligand binding and potency studies on transfected cells to determine affinity
# human OTR = target: T2, human OTR (Homo sapiens, UniProt P30559); test: Scintillation proximity assay, displacement of [3H]OT from human OTR; details: for Ki: human OTR
# T2 construct: expressed in transfected cells
# T2 sequence (P30559 1-389): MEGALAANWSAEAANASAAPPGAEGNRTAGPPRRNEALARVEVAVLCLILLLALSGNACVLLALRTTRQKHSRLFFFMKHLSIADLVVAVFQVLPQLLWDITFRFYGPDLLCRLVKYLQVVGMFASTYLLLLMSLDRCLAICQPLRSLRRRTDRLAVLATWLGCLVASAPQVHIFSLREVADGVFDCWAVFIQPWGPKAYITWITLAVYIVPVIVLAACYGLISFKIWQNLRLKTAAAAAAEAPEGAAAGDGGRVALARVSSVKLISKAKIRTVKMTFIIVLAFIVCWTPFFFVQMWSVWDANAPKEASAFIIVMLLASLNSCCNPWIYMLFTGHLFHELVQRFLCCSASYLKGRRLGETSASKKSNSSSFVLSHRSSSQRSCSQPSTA
# From the text: as §1, §2, §3
# [1] = target: T3, human vasopressin receptor V2 (Homo sapiens, UniProt P30518); test: Scintillation proximity assay, displacement of [3H]AVP from human V2 receptor
# T3 construct: expressed in transfected cells
# T3 sequence (P30518 whole entry): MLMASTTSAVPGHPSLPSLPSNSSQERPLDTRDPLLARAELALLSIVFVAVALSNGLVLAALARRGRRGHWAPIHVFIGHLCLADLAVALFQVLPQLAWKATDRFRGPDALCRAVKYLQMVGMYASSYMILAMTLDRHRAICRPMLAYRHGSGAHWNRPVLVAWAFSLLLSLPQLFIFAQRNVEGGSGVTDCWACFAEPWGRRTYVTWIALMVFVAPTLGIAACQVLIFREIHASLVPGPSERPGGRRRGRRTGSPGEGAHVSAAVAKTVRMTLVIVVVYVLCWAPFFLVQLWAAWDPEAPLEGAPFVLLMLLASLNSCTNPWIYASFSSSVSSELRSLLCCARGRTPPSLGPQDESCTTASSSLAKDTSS
# From the text: as §1, §2, §3
Ki (human V1a receptors) [µM],Ki (human OTR) [µM],Ki [1] [µM],"selectivity towards OTR (human OTR; OTR over V1a, from Ki values of Table 1) [fold]",SMILES
0.362 ± 0.124,0.0012 ± 0.0009,,,CC[C@H](C)[C@H](NC(=O)[C@H](Cc1ccc(O)cc1)NC(=O)CCS)C(=O)N[C@@H](CCC(N)=O)C(=O)N[C@@H](CC(N)=O)C(=O)N[C@@H](CS)C(=O)N1CCC[C@H]1C(=O)N[C@@H](CC(C)C)C(=O)NCC(N)=O [dOToc]
0.031 ± 0.009,0.0063 ± 0.0036,5.82 ± 1.7,,CC[C@H](C)[C@H](NC(=O)[C@H](Cc1ccc(O)cc1)NC(=O)CCS)C(=O)N[C@@H](CCC(N)=O)C(=O)N[C@@H](CC(N)=O)C(=O)N[C@@H](CS)C(=O)N1CCC[C@H]1C(=O)N[C@@H](CCCCN)C(=O)NCC(N)=O [dLVToc] ([Mpa]YIQNCPKG-NH2)
0.388 ± 0.157,0.0016 ± 0.0013,,,CC[C@H](C)[C@@H]1NC(=O)[C@H](Cc2ccc(O)cc2)NC(=O)CCSSC[C@@H](C(=O)N2CCC[C@H]2C(=O)N[C@@H](CC(C)C)C(=O)NCC(N)=O)NC(=O)[C@H](CC(N)=O)NC(=O)[C@H](CCC(N)=O)NC1=O [dOTc]
0.024 ± 0.005,0.0034 ± 0.001,4.84 ± 1.67,~7,"CC[C@H](C)[C@@H]1NC(=O)[C@H](Cc2ccc(O)cc2)NC(=O)CCSSC[C@@H](C(=O)N2CCC[C@H]2C(=O)N[C@@H](CCCCN)C(=O)NCC(N)=O)NC(=O)[C@H](CC(N)=O)NC(=O)[C@H](CCC(N)=O)NC1=O [dLVTc, reference compound] ([Mpa]YIQNCPKG-NH2; disulfide 1-6)"
